Measured values reported in ChEMBL document CHEMBL1201862, “PubChem BioAssay data set” (2004).
Activity calls are given as the source filed them.

Assays:
Cytochrome P450 1A2 = molecular target: T1, Cytochrome P450 1A2 (Homo sapiens, UniProt P05177);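 note: PubChem cytochrome P450 panel assay, CYP1A2 panel member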
T1 sequence (P05177 whole entry): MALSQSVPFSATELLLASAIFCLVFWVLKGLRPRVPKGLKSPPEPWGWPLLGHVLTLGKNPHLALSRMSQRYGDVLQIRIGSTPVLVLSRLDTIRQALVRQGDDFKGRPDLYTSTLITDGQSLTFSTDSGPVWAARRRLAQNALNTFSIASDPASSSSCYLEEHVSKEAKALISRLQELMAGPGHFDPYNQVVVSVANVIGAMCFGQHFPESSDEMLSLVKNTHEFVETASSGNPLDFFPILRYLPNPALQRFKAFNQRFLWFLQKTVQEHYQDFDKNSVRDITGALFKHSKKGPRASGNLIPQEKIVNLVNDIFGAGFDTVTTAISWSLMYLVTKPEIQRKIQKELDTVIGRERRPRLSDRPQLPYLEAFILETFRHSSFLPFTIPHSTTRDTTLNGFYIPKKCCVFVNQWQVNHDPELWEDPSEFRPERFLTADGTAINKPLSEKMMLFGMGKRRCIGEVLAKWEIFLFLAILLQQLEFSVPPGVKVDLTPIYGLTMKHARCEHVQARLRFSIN

Cytochrome P450 2C9 = Cytochrome P450 2C9 (Homo sapiens, UniProt P11712)
Cytochrome P450 2C19 = Cytochrome P450 2C19 (Homo sapiens, UniProt P33261); test: Cytochrome panel assay with activity outcomes. Panel member name: p450-cyp2c19 Compounds with AC50 equal or less than 10 uM are considered active; format: functional
Streptococcus = test: Group A Streptococcus viability loss, dose response, counter-screen for streptokinase expression inhibitor project, luminescence, BacTiterGlo (AID 1915); format: functional, organism-based;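 note: potency for reduction of bacterial viability or growth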
Streptokinase A = molecular target: T2, Streptokinase A (Streptococcus pyogenes serotype M1, UniProt P10520); test: S. pyogenes streptokinase expression inhibitors, potency, dose response, plasminogen activation absorbance, OD405 (AID 1914); format: functional, Streptococcus pyogenes M1 GAS;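 note: secreted streptokinase activity via plasminogen activation per viability signal from cell pellet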
T2 sequence (P10520 whole entry): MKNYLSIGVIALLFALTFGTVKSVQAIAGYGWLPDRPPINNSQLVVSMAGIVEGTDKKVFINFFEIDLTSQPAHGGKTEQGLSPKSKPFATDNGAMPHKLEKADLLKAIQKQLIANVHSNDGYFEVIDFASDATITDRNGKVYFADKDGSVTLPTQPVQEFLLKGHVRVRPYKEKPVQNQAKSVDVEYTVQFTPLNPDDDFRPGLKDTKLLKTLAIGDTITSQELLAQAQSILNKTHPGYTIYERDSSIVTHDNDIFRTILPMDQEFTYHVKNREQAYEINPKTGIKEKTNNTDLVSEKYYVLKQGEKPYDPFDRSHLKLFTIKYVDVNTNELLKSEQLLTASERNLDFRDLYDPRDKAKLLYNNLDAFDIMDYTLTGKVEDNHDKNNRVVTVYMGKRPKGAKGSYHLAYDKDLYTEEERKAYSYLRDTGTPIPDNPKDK

[1] = system: Streptococcus sp. 'group A'; test: growth inhibition of control SK(-) GAS strain, dose response, counter-screen for streptokinase expression inhibitor project, luminescence, kanamycin, BacTiterGlo, confirmation (AID 1900); format: functional, organism-based
[2] = molecular target: T3, Heat shock factor protein 1 (Mus musculus, UniProt P38532); test: inhibition of MG132-induced HSE-luciferase signal, confirmation, cell-based, NIH3T3, luminescence, dose retest (AID 2382); format: functional;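 note: NIH3T3 fibroblasts with HSF1-driven luciferase reporter stressed by proteasome inhibitor MG132; luminescence from HSF1-driven luciferase expression after 8 hours of MG132 stress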
T3 sequence (P38532 whole entry): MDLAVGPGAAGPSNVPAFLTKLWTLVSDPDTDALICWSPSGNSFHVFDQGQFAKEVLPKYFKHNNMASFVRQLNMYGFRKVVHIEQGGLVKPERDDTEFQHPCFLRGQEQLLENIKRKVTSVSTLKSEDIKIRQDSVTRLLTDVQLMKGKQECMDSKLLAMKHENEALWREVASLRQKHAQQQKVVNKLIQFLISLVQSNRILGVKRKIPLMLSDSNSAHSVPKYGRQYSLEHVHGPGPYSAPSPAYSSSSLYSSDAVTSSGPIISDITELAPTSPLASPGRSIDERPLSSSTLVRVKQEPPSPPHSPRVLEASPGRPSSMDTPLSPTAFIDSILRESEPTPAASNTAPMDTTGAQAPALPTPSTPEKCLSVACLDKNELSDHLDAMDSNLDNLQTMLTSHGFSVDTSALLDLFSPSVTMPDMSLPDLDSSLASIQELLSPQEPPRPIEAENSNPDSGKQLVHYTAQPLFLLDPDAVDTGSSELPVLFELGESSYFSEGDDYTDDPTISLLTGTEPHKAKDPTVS

Cytochrome P450 2D6 = Cytochrome P450 2D6 (Homo sapiens, UniProt P10635);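 note: CYP2D6 member of a cytochrome P450 panel assay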
Cytochrome P450 3A4 = Cytochrome P450 3A4 (Homo sapiens, UniProt P08684);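 note: CYP3A4 tested as one member of a cytochrome P450 panel screen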
Cytochrome P450 3A4, sequence (P08684 whole entry): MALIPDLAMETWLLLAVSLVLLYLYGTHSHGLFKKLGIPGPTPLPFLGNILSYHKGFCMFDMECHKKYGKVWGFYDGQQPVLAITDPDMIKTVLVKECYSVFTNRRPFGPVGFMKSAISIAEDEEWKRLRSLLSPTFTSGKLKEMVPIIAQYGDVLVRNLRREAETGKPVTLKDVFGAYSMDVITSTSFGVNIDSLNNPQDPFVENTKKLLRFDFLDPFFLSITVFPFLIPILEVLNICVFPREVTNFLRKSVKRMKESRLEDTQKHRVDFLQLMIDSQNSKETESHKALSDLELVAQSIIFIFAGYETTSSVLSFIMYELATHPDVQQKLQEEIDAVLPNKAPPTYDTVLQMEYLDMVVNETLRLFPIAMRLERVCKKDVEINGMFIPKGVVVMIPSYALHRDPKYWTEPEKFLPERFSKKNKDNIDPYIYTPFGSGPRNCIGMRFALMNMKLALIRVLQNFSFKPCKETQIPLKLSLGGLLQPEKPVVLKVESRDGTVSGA

Cytochrome P450 2C19, sequence (P33261 whole entry): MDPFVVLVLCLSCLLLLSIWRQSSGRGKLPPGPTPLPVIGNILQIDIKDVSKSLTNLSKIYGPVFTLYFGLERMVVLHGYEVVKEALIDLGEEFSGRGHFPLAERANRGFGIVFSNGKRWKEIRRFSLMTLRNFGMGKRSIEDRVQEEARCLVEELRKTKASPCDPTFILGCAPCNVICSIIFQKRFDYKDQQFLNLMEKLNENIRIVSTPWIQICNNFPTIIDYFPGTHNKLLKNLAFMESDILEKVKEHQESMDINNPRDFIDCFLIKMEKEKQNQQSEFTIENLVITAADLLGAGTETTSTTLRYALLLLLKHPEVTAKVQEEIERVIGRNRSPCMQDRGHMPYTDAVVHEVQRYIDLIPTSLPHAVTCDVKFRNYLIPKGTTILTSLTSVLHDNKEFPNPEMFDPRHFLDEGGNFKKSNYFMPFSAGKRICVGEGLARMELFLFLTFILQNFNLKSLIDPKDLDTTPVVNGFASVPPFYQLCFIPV
Cytochrome P450 2C9, sequence (P11712 whole entry): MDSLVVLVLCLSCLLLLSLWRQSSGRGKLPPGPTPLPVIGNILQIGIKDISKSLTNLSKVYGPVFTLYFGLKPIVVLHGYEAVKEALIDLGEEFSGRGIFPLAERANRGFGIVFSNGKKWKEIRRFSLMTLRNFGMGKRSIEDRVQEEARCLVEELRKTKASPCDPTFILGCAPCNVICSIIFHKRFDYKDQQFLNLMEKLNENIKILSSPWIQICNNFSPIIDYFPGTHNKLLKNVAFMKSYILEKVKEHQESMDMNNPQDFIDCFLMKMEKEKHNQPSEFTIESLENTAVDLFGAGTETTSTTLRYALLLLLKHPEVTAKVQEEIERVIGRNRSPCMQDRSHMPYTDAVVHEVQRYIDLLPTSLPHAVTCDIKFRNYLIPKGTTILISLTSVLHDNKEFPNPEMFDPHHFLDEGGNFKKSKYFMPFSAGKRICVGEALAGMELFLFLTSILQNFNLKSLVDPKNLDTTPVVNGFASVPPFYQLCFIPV
Cytochrome P450 2D6, sequence (P10635 whole entry): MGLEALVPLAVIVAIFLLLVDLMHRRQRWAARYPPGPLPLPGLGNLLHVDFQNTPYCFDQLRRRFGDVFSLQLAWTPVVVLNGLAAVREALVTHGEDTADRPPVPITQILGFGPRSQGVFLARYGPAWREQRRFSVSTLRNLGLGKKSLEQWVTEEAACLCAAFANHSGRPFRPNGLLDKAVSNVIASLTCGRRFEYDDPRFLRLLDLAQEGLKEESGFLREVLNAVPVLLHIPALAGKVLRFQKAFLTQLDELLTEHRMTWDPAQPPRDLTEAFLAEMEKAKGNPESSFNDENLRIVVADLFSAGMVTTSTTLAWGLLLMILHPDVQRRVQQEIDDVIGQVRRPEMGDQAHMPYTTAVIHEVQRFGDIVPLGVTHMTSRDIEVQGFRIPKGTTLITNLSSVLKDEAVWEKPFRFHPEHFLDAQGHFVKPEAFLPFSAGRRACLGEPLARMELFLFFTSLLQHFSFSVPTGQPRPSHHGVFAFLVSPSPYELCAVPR

Compound	EC50 (Streptococcus)	EC50 (Streptokinase A)	EC50 [1]	EC50 [2]	also measured
COc1cc2c(cc1OC)/C(=C/C(=O)N1CCOCC1)NC(C)(C)C2					AC50 (Cytochrome P450 1A2): 15.8 µM (inconclusive); AC50 (Cytochrome P450 2C9): 3.98 µM (inconclusive); AC50 (Cytochrome P450 2C19; read-out: AC50): 22.4 µM (inconclusive)
FC(F)(F)c1cc(-c2ccccc2)nc(N2CCCCCC2)n1	14.3 µM (active)	5.14 µM (active)	4.27 µM (active)		
Sc1nnc(-c2ccncc2)n1Cc1ccco1				> 195 µM (not active)	
Cc1ccc(OCC(=O)NNC(=O)CCC(=O)Nc2ccc(C)cc2C)cc1					AC50 (Cytochrome P450 2C19): inconclusive
COc1ccccc1N1CCN(C(c2ccc(N(C)C)cc2)c2nnnn2CCc2ccccc2)CC1 (configuration not stated)				> 195 µM (not active)	
COc1ccc(N2CCN(C(=O)Cc3csc(NC(=O)Nc4ccccc4OC)n3)CC2)cc1	32.7 µM (active)	> 150 µM (not active)	> 150 µM (not active)		
O=C(Nc1nc(-c2ccccn2)cs1)C12CC3CC(CC(O)(C3)C1)C2	> 150 µM (not active)	> 150 µM (not active)	> 150 µM (not active)		
OC1/C(=C/c2ccccc2C(F)(F)F)N2CCC1CC2 (configuration not stated)				> 195 µM (not active)	
COc1ccc(C(=O)N2CCCC(Nc3ccc(C)c(C)c3)C2)cc1F (configuration not stated)	> 150 µM (not active)	> 150 µM (not active)	> 150 µM (not active)		
Oc1ccccc1/C=N/NC(=S)NC1CC2CCC1C2 (configuration not stated)	8.53 µM (active)	> 150 µM (not active)	4.8 µM (active)		
CC(C)c1c(C(=O)N/N=C/c2cccc(OCc3ccc(F)cc3)c2)nnn1-c1nonc1N	23.1 µM (active)	2.1 µM (active)	4.9 µM (active)		
CCCOc1ccc(N2C(=O)CC(SC(=N)N/N=C(\C)c3cccs3)C2=O)cc1 (configuration not stated)					AC50 (Cytochrome P450 1A2): 15.8 µM (inconclusive); AC50 (Cytochrome P450 2D6): 15.8 µM (inconclusive)
CSc1cccc(NC(=S)N2CCC(N(C)C3CCCC3)CC2)c1				> 195 µM (not active)	
Cc1ccc(/C=C2/Sc3ccc(C(=O)N4CCN(C)CC4)cc3NC2=O)cc1	14.2 µM (active)	> 150 µM (not active)	7.17 µM (active)		
CCn1c(O)c(C(c2ccccn2)c2c(O)n(CC)c(=S)[nH]c2=O)c(=O)[nH]c1=S					AC50 (Cytochrome P450 2C9): 31.6 µM (inconclusive); AC50 (Cytochrome P450 2C19; read-out: AC50): 0.00562 µM (inconclusive)
CCOC(=O)C(=NC(C)(C)C)NNc1cc(Cl)ccc1Cl	21.1 µM (active)	7.59 µM (active)	4.52 µM (active)		
COc1ccc(N2CC(C(=O)OCC(=O)c3cccc(OC)c3)CC2=O)cc1 (configuration not stated)					AC50 (Cytochrome P450 2C19; read-out: AC50): 8.91 µM (inconclusive)
COc1cc(Cn2cnnn2)ccc1O					AC50 (Cytochrome P450 1A2): 39.8 µM (inconclusive); AC50 (Cytochrome P450 2C9): 0.178 µM (inconclusive)
COc1ccc(C(C)N=C(S)NC2CCCCC2)cc1OC (configuration not stated)				> 195 µM (not active)	
COC(=O)[C@H](C)NC(=O)NCCC1=CCCCC1				> 195 µM (not active)	
O=C(NCCCN1CCC(Cc2ccccc2)CC1)C1CC(=O)N(C2CCCC2)C1 (configuration not stated)				> 195 µM (not active)	
CCN(CC)CCOC(=O)[C@@H](Cc1cccc2ccccc12)C[C@@H]1CCCO1 [NAFTIDROFURYL]					AC50 (Cytochrome P450 1A2): 10 µM (inconclusive); AC50 (Cytochrome P450 2D6): 5.01 µM (inconclusive)
COc1ccc(C2N(c3ccccn3)C(=O)C3CCCN32)c(OC)c1 (configuration not stated)					AC50 (Cytochrome P450 1A2): 0.00631 µM (inconclusive); AC50 (Cytochrome P450 3A4): 22.4 µM (inconclusive); AC50 (Cytochrome P450 2C19; read-out: AC50): 28.2 µM (inconclusive)
